BindingDB's records for doi:10.1016/s0960-894x(02)00102-6 (Schering-Plough Research Institute, 2002)

Assay: Michaelis-Menten constant was determined against Hepatitis C virus NS3 protease and represented as Km

`CCCN(NC(=O)[C@H]1CCCN1C(=O)[C@@H](NC(=O)[C@@H](NC(=O)[C@H](CC(=O)O)NC(=O)[C@H](CCC(=O)O)NC(=O)[C@@H](NC(C)=O)[C@@H](C)O)C(C)C)C(C)C)C(=O)Oc1ccc([N+](=O)[O-])cc1` [Azapeptide] showed a Ki of 8 µM.
